Experimental data published in PubChem BioAssay AID1918949 (Molecular Pharmacology Branch, DTP, NCI, 2023).

Test system: K24384-001-R-PDC complex spheroid viability
Assay: Anticancer human tumor K24384-001-R-PDC patient-derived pancreatic adenocarcinoma cell line growth inhibition
Settings: for IC50: curve of first compound; for viability, T/C: stronger effect = lower value
From the text: Multicellular complex tumor spheroid response to LSD1 Inhibitor Iadademstat in combination with a variety of drugs and investigational agents in selected tumor cell lines
The current study was undertaken to assess response to LSD1 inhibitors in combination with standard-of-care drugs and investigational agents in solid tumor complex spheroid models as well as in the K-562 leukemia. Complex spheroids include a stromal component modeled by human endothelial cells (HUVEC) and fibroblasts modeled by human mesenchymal stem cells (MSCs). The concentration ranges selected for each drug and investigational agent were based upon clinically achievable concentrations if the clinical Cmax of the agent was known.
Compounds. The drugs and investigational agents used in this study are listed on Table 1. All of the agents used, including staurosporine (NSC755774) and gemcitabine (NSC613327), were obtained from the Developmental Therapeutics Program, NCI. FDA-approved anticancer drugs are available from the NCI at http://dtp.nci.nih.gov/branches/dscb/oncology_drugset_explanation.html. Drugs and investigational agents were >95% pure by proton nuclear magnetic resonance (NMR) and liquid chromatography/mass spectrometry (LC/MS). Stock solutions were prepared at 400x in DMSO, stored at -70 degrees C, and diluted in fresh medium prior to their use. The final concentration of DMSO in cell culture wells never exceeded 0.25% (v/v). The FDA-approved anticancer drug set is available from the Developmental Therapeutics Program at https://dtp.cancer.gov/organization/dscb/obtaining/available_plates.htm. All drugs and investigational agents were tested over a range starting from a high concentration at or near the clinical Cmax and decreasing in half-log increments. If the clinical Cmax for an agent had not been determined, the highest concentration tested was 10 microM.
Cell Lines. The patient-derived cancer cell (PDC) lines: 292921-168-R-J2-PDC, K24384-001-R-PDC, and 521955-158-R2-J5-PDC pancreatic carcinomas, 556581-035-R-J1 ovarian carcinoma, 324938-238-R-J1-PDC, 855422-203-R-J1-PDC and 883617-216-R-J1-PDC urothelial bladder carcinomas, 743489-274-T-PDC renal cell carcinoma, 138582-R-J1 Merkel cell tumor, K60290-347-R-J1 and K57222-313-R-J1-PDC glioblastomas, 653999-131-R-J2-PDC, LG0703-F948-PDC, and 349418-098-R-PDC non-small cell lung carcinomas, 885512-296-R-J2-PDC, 171881-019-R-J1-PDC breast carcinomas and 186277-243-T-J2-PDC and 233499-124-R-J2-PDC colon carcinomas were obtained from the NCI Patient-Derived Models Repository (PDMR, https://pdmr.cancer.gov). The established cell lines NCI/ADR-RES (RRID:CVCL_14520 and OVCAR-5 (RRID:CVCL_1628) ovarian carcinomas, 786-O (RRID:CVCL_1051) and A498 (RRID:CVCL_A498) renal cell carcinoma, NCI-H211 (ATCC, cat. CRL-5824; RRID:CVCL_1529), NCI-H196 (ATCC, cat. CRL-5823, RRID:CVCL_1509), SW 1271 (ATCC, cat. CRL-2177, RRID:CVCL_1716) and NCI-H1876 (ATCC, cat. CRL-5902, RRID:CVCL_1503) small cell lung carcinomas, MDA-MB-231 (RRID:CVCL_0062) and MDA-MB-468 (RRID:CVCL_0419)breast carcinomas (10-12). Pooled donor human umbilical vein endothelial cells (HUVEC, Lonza, cat. CC-2519) and human mesenchymal stem cells (hMSC, Lonza, cat. PT-2501) were purchased from Lonza (Walkersville, MD).
Cell Culture. All cells were maintained in an incubator at 37 degrees C and 5% CO2 with 95% humidity. The PDC lines were cultured according to standard operating procedures established by the NCI PDMR (https://pdmr.cancer.gov). Briefly all PDCs were thawed and cultured in Matrigel-coated flasks prepared with a working solution of 1X Ham's F-12 nutrient mix, without supplementation (Invitrogen, Waltham, MA, cat. 11765054), 100 U/mL penicillin-streptomycin (Invitrogen, cat. 15140122), and 2.5% Matrigel (Corning Inc., Corning, NY, cat. 354248) for the first three passages. […]

[1] = second compound 0.1 µM, first compound 0.000949 µM
[2] = second compound 0.1 µM, first compound 0.003 µM
[3] = second compound 0.1 µM, first compound 0.00949 µM
[4] = second compound 0.1 µM, first compound 0.03 µM
[5] = second compound 0.1 µM, first compound 0.0949 µM
[6] = second compound 0.1 µM, first compound 0.3 µM
[7] = second compound 0.316 µM, first compound 0.000949 µM
[8] = second compound 0.316 µM, first compound 0.003 µM
[9] = second compound 0.316 µM, first compound 0.00949 µM
[10] = second compound 0.316 µM, first compound 0.03 µM
[11] = second compound 0.316 µM, first compound 0.0949 µM
[12] = second compound 0.316 µM, first compound 0.3 µM
[13] = second compound 1 µM, first compound 0.000949 µM
[14] = second compound 1 µM, first compound 0.003 µM
[15] = second compound 1 µM, first compound 0.00949 µM
[16] = second compound 1 µM, first compound 0.03 µM
[17] = second compound 1 µM, first compound 0.0949 µM
[18] = second compound 1 µM, first compound 0.3 µM
[19] = second compound 3.16 µM, first compound 0.000949 µM
[20] = second compound 3.16 µM, first compound 0.003 µM
[21] = second compound 3.16 µM, first compound 0.00949 µM
[22] = second compound 3.16 µM, first compound 0.03 µM
[23] = second compound 3.16 µM, first compound 0.0949 µM
[24] = second compound 3.16 µM, first compound 0.3 µM
[25] = second compound 10 µM, first compound 0.000949 µM
[26] = second compound 10 µM, first compound 0.003 µM
[27] = second compound 10 µM, first compound 0.00949 µM
[28] = second compound 10 µM, first compound 0.03 µM
[29] = second compound 10 µM, first compound 0.0949 µM
[30] = second compound 10 µM, first compound 0.3 µM
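Note: spheroids exposed to agents for seven days before luminescence viability reading.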
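Throughout, for viability, T/C: 100% = DMSO vehicle control viability.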

CCc1c2c(nc3ccc(O)cc13)-c1cc3c(c(=O)n1C2)COC(=O)[C@]3(O)CC + NC1CC1c1ccc(-c2cccc(O)c2)cc1
IC50 (second compound 0.1 µM): < 0.949 nM
IC50 (second compound 0.316 µM): < 0.949 nM
IC50 (second compound 1 µM): < 0.949 nM
IC50 (second compound 3.16 µM): < 0.949 nM
IC50 (second compound 10 µM): < 0.949 nM
viability, T/C [1]: 38.8%
viability, T/C [2]: 32.7%
viability, T/C [3]: 28.5%
viability, T/C [4]: 8.07%
viability, T/C [5]: 5.66%
viability, T/C [6]: 4.56%
viability, T/C [7]: 34.2%
viability, T/C [8]: 30.9%
viability, T/C [9]: 31.5%
viability, T/C [10]: 10.9%
viability, T/C [11]: 8.49%
viability, T/C [12]: 5.16%
viability, T/C [13]: 36.8%
viability, T/C [14]: 34.2%
viability, T/C [15]: 26.4%
viability, T/C [16]: 7.42%
viability, T/C [17]: 4.74%
viability, T/C [18]: 4.43%
viability, T/C [19]: 37.1%
viability, T/C [20]: 33.7%
viability, T/C [21]: 25.8%
viability, T/C [22]: 7.05%
viability, T/C [23]: 4.62%
viability, T/C [24]: 4.99%
viability, T/C [25]: 43.4%
viability, T/C [26]: 34.2%
viability, T/C [27]: 24%
viability, T/C [28]: 5.88%
viability, T/C [29]: 5.79%
viability, T/C [30]: 4.12%

Nc1ccn(C2OC(CO)C(O)C2(F)F)c(=O)n1 (stereo not given) + NC1CC1c1ccc(-c2cccc(O)c2)cc1
IC50 (second compound 0.1 µM): 28.3 nM
IC50 (second compound 0.316 µM): 43 nM
IC50 (second compound 1 µM): 38.1 nM
IC50 (second compound 3.16 µM): 46 nM
IC50 (second compound 10 µM): 90.9 nM
viability, T/C [1]: 82.5%
viability, T/C [2]: 72.9%
viability, T/C [3]: 63.4%
viability, T/C [4]: 48%
viability, T/C [5]: 41.9%
viability, T/C [6]: 37.2%
viability, T/C [7]: 87.9%
viability, T/C [8]: 73.4%
viability, T/C [9]: 68%
viability, T/C [10]: 49.5%
viability, T/C [11]: 44.9%
viability, T/C [12]: 35.8%
viability, T/C [13]: 75%
viability, T/C [14]: 84.5%
viability, T/C [15]: 63.6%
viability, T/C [16]: 53.2%
viability, T/C [17]: 41.1%
viability, T/C [18]: 32%
viability, T/C [19]: 98.5%
viability, T/C [20]: 81.2%
viability, T/C [21]: 67.1%
viability, T/C [22]: 56%
viability, T/C [23]: 42.1%
viability, T/C [24]: 31.5%
viability, T/C [25]: 103%
viability, T/C [26]: 99%
viability, T/C [27]: 95.5%
viability, T/C [28]: 69.3%
viability, T/C [29]: 51.3%
viability, T/C [30]: 40.2%

O=C(c1cc(Cc2n[nH]c(=O)c3ccccc23)ccc1F)N1CCN(C(=O)C2CC2)CC1 + NC1CC1c1ccc(-c2cccc(O)c2)cc1
IC50 (second compound 0.1 µM): > 10000 nM
IC50 (second compound 0.316 µM): > 10000 nM
IC50 (second compound 1 µM): > 10000 nM
IC50 (second compound 3.16 µM): > 10000 nM
IC50 (second compound 10 µM): > 10000 nM
viability, T/C (second compound 0.1 µM, first compound 0.0316 µM): 96.3%
viability, T/C (second compound 0.1 µM, first compound 0.1 µM): 73.9%
viability, T/C (second compound 0.1 µM, first compound 0.316 µM): 84.4%
viability, T/C (second compound 0.1 µM, first compound 1 µM): 65.8%
viability, T/C (second compound 0.1 µM, first compound 3.16 µM): 56.2%
viability, T/C (second compound 0.1 µM, first compound 10 µM): 67.4%
viability, T/C (second compound 0.316 µM, first compound 0.0316 µM): 89.8%
viability, T/C (second compound 0.316 µM, first compound 0.1 µM): 80.5%
viability, T/C (second compound 0.316 µM, first compound 0.316 µM): 79.5%
viability, T/C (second compound 0.316 µM, first compound 1 µM): 77%
viability, T/C (second compound 0.316 µM, first compound 3.16 µM): 57.6%
viability, T/C (second compound 0.316 µM, first compound 10 µM): 66.1%
viability, T/C (second compound 1 µM, first compound 0.0316 µM): 78.7%
viability, T/C (second compound 1 µM, first compound 0.1 µM): 73.5%
viability, T/C (second compound 1 µM, first compound 0.316 µM): 72.6%
viability, T/C (second compound 1 µM, first compound 1 µM): 81%
viability, T/C (second compound 1 µM, first compound 3.16 µM): 66.6%
viability, T/C (second compound 1 µM, first compound 10 µM): 70.8%
viability, T/C (second compound 3.16 µM, first compound 0.0316 µM): 78.7%
viability, T/C (second compound 3.16 µM, first compound 0.1 µM): 77.3%
viability, T/C (second compound 3.16 µM, first compound 0.316 µM): 83.8%
viability, T/C (second compound 3.16 µM, first compound 1 µM): 72.2%
viability, T/C (second compound 3.16 µM, first compound 3.16 µM): 68%
viability, T/C (second compound 3.16 µM, first compound 10 µM): 59.8%
viability, T/C (second compound 10 µM, first compound 0.0316 µM): 86.6%
viability, T/C (second compound 10 µM, first compound 0.1 µM): 81.5%
viability, T/C (second compound 10 µM, first compound 0.316 µM): 76.5%
viability, T/C (second compound 10 µM, first compound 1 µM): 87.4%
viability, T/C (second compound 10 µM, first compound 3.16 µM): 54.5%
viability, T/C (second compound 10 µM, first compound 10 µM): 62.3%
